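Cells were grown in 96-well plates and exposed to each compound for 48 hours at five concentrations; endpoints were interpolated linearly between bracketing concentrations, or set to the highest concentration if not reached. At the GI50, growth is halved.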 Activity calls are given as the source filed them. No stated cut-off is given here; in the data, active = GI50 up to about 1.1 µM and inactive = higher.
Tests used:
Assay in all cases: DTP human tumour cell line panel, 48 h
LXFL 529 = tested on: LXFL 529
SNB-75 = tested on: SNB-75
SW-620 = tested on: SW-620
NCI-H460 = tested on: NCI-H460
SK-MEL-2 = tested on: SK-MEL-2
Malme-3M = tested on: Malme-3M
NCI-H226 = tested on: NCI-H226
SK-MEL-28 = tested on: SK-MEL-28
K562 = tested on: K562
CAKI-1 = tested on: CAKI-1
UACC-62 = tested on: UACC-62
KM-20L2 = tested on: KM-20L2
EKVX = tested on: EKVX
OVCAR-3 = tested on: OVCAR-3
M19-MEL = tested on: M19-MEL
HL-60 = tested on: HL-60
NCI-H23 = tested on: NCI-H23
SK-MEL-5 = tested on: SK-MEL-5
DMS-273 = tested on: DMS-273
OVCAR-4 = tested on: OVCAR-4
SK-OV-3 = tested on: SK-OV-3
NCI-H522 = tested on: NCI-H522
MOLT-4 = tested on: MOLT-4
COLO 205 = tested on: COLO 205
A498 = tested on: A498
SR = tested on: SR
786-0 = tested on: 786-0
SN12C = tested on: SN12C
TK-10 = tested on: TK-10
SNB-19 = tested on: SNB-19
A549 = tested on: A549
HCT-15 = tested on: HCT-15
HCT-116 = tested on: HCT-116
DLD-1 = tested on: DLD-1
OVCAR-5 = tested on: OVCAR-5
LOX IMVI = tested on: LOX IMVI
OVCAR-8 = tested on: OVCAR-8
HOP-18 = tested on: HOP-18
ACHN = tested on: ACHN
M14 = tested on: M14
DMS-114 = tested on: DMS-114
SNB-78 = tested on: SNB-78
CCRF-CEM = tested on: CCRF-CEM
UACC-257 = tested on: UACC-257
IGROV-1 = tested on: IGROV-1
SF-295 = tested on: SF-295
HT-29 = tested on: HT-29
HOP-92 = tested on: HOP-92
SF-268 = tested on: SF-268
HOP-62 = tested on: HOP-62
SF-539 = tested on: SF-539
U-251 = tested on: U-251
RXF 393 = tested on: RXF 393
KM12 = tested on: KM12
UO-31 = tested on: UO-31
RPMI-8226 = tested on: RPMI-8226
HCC 2998 = tested on: HCC 2998
XF498 = tested on: XF498

Measured: GI50

CCCc1nc(NC#N)nc(C(=O)NC23CC4CC(CC(C4)C2)C3)c1C
> 100 µM: HCT-15
inactive: LXFL 529 > 100 µM | SNB-75 > 100 µM | SW-620 > 100 µM | NCI-H460 > 100 µM | SK-MEL-2 > 100 µM | Malme-3M > 100 µM | NCI-H226 > 100 µM | SK-MEL-28 > 100 µM | K562 > 100 µM | CAKI-1 > 100 µM | UACC-62 > 100 µM | KM-20L2 > 100 µM | EKVX > 100 µM | OVCAR-3 > 100 µM | M19-MEL > 100 µM | HL-60 > 100 µM | NCI-H23 > 100 µM | SK-MEL-5 > 100 µM | DMS-273 > 100 µM | OVCAR-4 > 100 µM | SK-OV-3 > 100 µM | NCI-H522 > 100 µM | MOLT-4 > 100 µM | COLO 205 > 100 µM | A498 > 100 µM | SR > 100 µM | 786-0 > 100 µM | SN12C > 100 µM | TK-10 > 100 µM | SNB-19 > 100 µM | A549 > 100 µM | HCT-116 > 100 µM | DLD-1 > 100 µM | OVCAR-5 > 100 µM | LOX IMVI > 100 µM | OVCAR-8 > 100 µM | HOP-18 > 100 µM | ACHN > 100 µM | M14 > 100 µM | DMS-114 > 100 µM | SNB-78 > 100 µM | CCRF-CEM > 100 µM | UACC-257 > 100 µM | IGROV-1 > 100 µM | SF-295 > 100 µM | HT-29 > 100 µM | HOP-92 > 100 µM | SF-268 > 100 µM | HOP-62 > 100 µM | SF-539 > 100 µM | U-251 > 100 µM | RXF 393 > 100 µM | KM12 > 100 µM | UO-31 > 100 µM | RPMI-8226 > 100 µM | HCC 2998 > 100 µM

CCOC(=O)C1=C(Nc2ccc(NC3=C(C(=O)OCC)C(=O)CS3)cc2)SCC1=O
18.5 µM: HCT-15
inactive: LXFL 529 22.1 µM | SNB-75 16.6 µM | SW-620 25.9 µM | NCI-H460 30.1 µM | SK-MEL-2 16.5 µM | Malme-3M 18.6 µM | NCI-H226 19.8 µM | SK-MEL-28 16.8 µM | K562 30.5 µM | CAKI-1 14.8 µM | UACC-62 16.9 µM | KM-20L2 35.2 µM | EKVX 35.2 µM | OVCAR-3 36.7 µM | M19-MEL 21.7 µM | HL-60 32.7 µM | NCI-H23 10 µM | SK-MEL-5 19.1 µM | DMS-273 20.7 µM | OVCAR-4 30.9 µM | SK-OV-3 30 µM | NCI-H522 13.7 µM | COLO 205 17.7 µM | A498 20.5 µM | 786-0 14.6 µM | SN12C 19.5 µM | TK-10 30.7 µM | SNB-19 32.2 µM | A549 30.3 µM | XF498 13.5 µM | HCT-116 18.5 µM | DLD-1 20.7 µM | OVCAR-5 22.7 µM | LOX IMVI 14.2 µM | OVCAR-8 27 µM | ACHN 22 µM | M14 20.4 µM | DMS-114 22.6 µM | SNB-78 33.6 µM | CCRF-CEM 29.8 µM | UACC-257 22.7 µM | IGROV-1 24.3 µM | SF-295 26.5 µM | HT-29 19.3 µM | HOP-92 24.6 µM | SF-268 22 µM | HOP-62 34 µM | SF-539 20.1 µM | U-251 25.2 µM | RXF 393 16 µM | KM12 21.5 µM | UO-31 17.5 µM | RPMI-8226 18.5 µM

Source: ChEMBL document CHEMBL1201862, “PubChem BioAssay data set” (2004)
